Experimental data taken from PubChem BioAssay AID248 (DTP/NCI, 2004).
“And” between values parts separate entries of the source, which are not always exact repeats. Identical values can stand only once. Toxic doses and inconclusive results are not listed. Rule as the data show it: active = T/C of 150% or more; inactive = T/C below 125%.

Tested on: L1210 leukemia ip in BDF1 mice, survival T/C
Test: NCI In Vivo Anticancer Drug Screen. Data for tumor model L1210 Leukemia (intraperitoneal) in B6D2F1 (BDF1) mice
Conditions: endpoint: mean survival time, higher = longer survival
Outline: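 Each compound was tested against a transplantable tumor grown in mice. The endpoint was survival, with treated animals benchmarked against vehicle controls as a simple ratio.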

[1] = dose: 100.0 mg/kg/injection, schedule: Q01DX001 (ip), vehicle: saline
[2] = dose: 100.0 mg/kg/injection, schedule: Q04DX003 (ip), vehicle: saline
[3] = dose: 200.0 mg/kg/injection, schedule: Q01DX001 (ip), vehicle: saline
[4] = dose: 200.0 mg/kg/injection, schedule: Q04DX003 (ip), vehicle: saline
[5] = dose: 400.0 mg/kg/injection, schedule: Q01DX001 (ip), vehicle: saline
[6] = dose: 12.5 mg/kg/injection, schedule: Q04DX003 (ip), vehicle: saline
[7] = dose: 25.0 mg/kg/injection, schedule: Q04DX003 (ip), vehicle: saline
[8] = dose: 100.0 mg/kg/injection, schedule: Q04DX003 (ip), vehicle: Klucel (hydroxypropylcellulose) (HPC)
[9] = dose: 200.0 mg/kg/injection, schedule: Q04DX003 (ip), vehicle: Klucel (hydroxypropylcellulose) (HPC)
[10] = dose: 400.0 mg/kg/injection, schedule: Q04DX003 (ip), vehicle: Klucel (hydroxypropylcellulose) (HPC)

Measured: T/C

CCC1=C/C(=C/c2cccc(OC)c2O)C(=O)S1
inactive: dose: 100.0 mg/kg/injection, schedule: Q01DX001 (ip), vehicle: saline with Tween-80 97 % of control | dose: 200.0 mg/kg/injection, schedule: Q01DX001 (ip), vehicle: saline with Tween-80 97 % of control | dose: 400.0 mg/kg/injection, schedule: Q01DX001 (ip), vehicle: saline with Tween-80 87 % of control

CCCC1=CN(Cc2ccccc2)c2ccccc2C1
inactive: [1] 96 % of control | [2] 97 % of control | [3] 96 % of control | [4] 97 % of control | [5] 97 % of control | dose: 400.0 mg/kg/injection, schedule: Q04DX003 (ip), vehicle: saline 93 % of control

CNC(C)(C)C(SSSC(c1ccc(Cl)cc1)C(C)(C)NC)c1ccc(Cl)cc1 (stereo not drawn)
inactive: dose: 12.5 mg/kg/injection, schedule: Q01DX009 (ip), vehicle: saline with Tween-80 103 % of control | dose: 12.5 mg/kg/injection, schedule: Q04DX003 (ip), vehicle: saline with Tween-80 98 % of control | dose: 25.0 mg/kg/injection, schedule: Q01DX009 (ip), vehicle: saline with Tween-80 98 % of control | dose: 25.0 mg/kg/injection, schedule: Q04DX003 (ip), vehicle: saline with Tween-80 100 % of control | dose: 50.0 mg/kg/injection, schedule: Q01DX009 (ip), vehicle: saline with Tween-80 97 % of control | dose: 50.0 mg/kg/injection, schedule: Q04DX003 (ip), vehicle: saline with Tween-80 96 % of control

N=C(N)c1ccc(-n2nc3ccc(C(=N)N)cc3n2)cc1
inactive: dose: 6.25 mg/kg/injection, schedule: Q04DX003 (ip), vehicle: saline 100 % of control and 103 % of control | [6] 100 % of control | [7] 100 % of control

Oc1ccc(Nc2ccnc3cc(Cl)ccc23)cc1CN1CCCC1
inactive: dose: 12.5 mg/kg/injection, schedule: Q01DX009 (ip), vehicle: saline 102 % of control | [6] 101 % of control | dose: 25.0 mg/kg/injection, schedule: Q01DX009 (ip), vehicle: saline 102 % of control | [7] 103 % of control | dose: 50.0 mg/kg/injection, schedule: Q01DX009 (ip), vehicle: saline 100 % of control | dose: 50.0 mg/kg/injection, schedule: Q04DX003 (ip), vehicle: saline 97 % of control | dose: 75.0 mg/kg/injection, schedule: Q01DX009 (ip), vehicle: saline 95 % of control | dose: 115.0 mg/kg/injection, schedule: Q01DX009 (ip), vehicle: saline 102 % of control

Cc1cc(Cl)c(C)cc1Cl
inactive: dose: 100.0 mg/kg/injection, schedule: Q01DX009 (ip), vehicle: saline sonified 107 % of control | dose: 100.0 mg/kg/injection, schedule: Q04DX003 (ip), vehicle: saline sonified 100 % of control | dose: 200.0 mg/kg/injection, schedule: Q01DX009 (ip), vehicle: saline sonified 110 % of control | dose: 200.0 mg/kg/injection, schedule: Q04DX003 (ip), vehicle: saline sonified 101 % of control | dose: 400.0 mg/kg/injection, schedule: Q01DX009 (ip), vehicle: saline sonified 102 % of control | dose: 400.0 mg/kg/injection, schedule: Q04DX003 (ip), vehicle: saline sonified 94 % of control

CCOc1cc(F)cc([N+](=O)[O-])c1
inactive: dose: 100.0 mg/kg/injection, schedule: Q01DX001 (ip), vehicle: carboxymethylcellulose (CMC) 97 % of control | dose: 200.0 mg/kg/injection, schedule: Q01DX001 (ip), vehicle: carboxymethylcellulose (CMC) 108 % of control | dose: 400.0 mg/kg/injection, schedule: Q01DX001 (ip), vehicle: carboxymethylcellulose (CMC) 89 % of control

O=[N+]([O-])c1ccc(OP(=O)(N2CCCCC2)N2CCCCC2)cc1
inactive: dose: 25.0 mg/kg/injection, schedule: Q04DX002 (ip), vehicle: saline with Tween-80 93 % of control | dose: 50.0 mg/kg/injection, schedule: Q04DX002 (ip), vehicle: saline with Tween-80 101 % of control | dose: 100.0 mg/kg/injection, schedule: Q04DX002 (ip), vehicle: saline with Tween-80 93 % of control

CCOc1ccc(/C=N\NC(=O)CCCC(=O)N/N=C/c2ccc(OCC)c(OCC)c2)cc1OCC
inactive: dose: 50.0 mg/kg/injection, schedule: Q01DX001 (ip), vehicle: saline 103 % of control | [1] 95 % of control | [3] 87 % of control

O=[N+]([O-])c1ccc(OCc2ccccc2S(=O)(=O)F)c(Cl)c1
inactive: dose: 100.0 mg/kg/injection, schedule: Q04DX003 (ip), vehicle: gum acacia 92 % of control | dose: 200.0 mg/kg/injection, schedule: Q04DX003 (ip), vehicle: gum acacia 93 % of control | dose: 400.0 mg/kg/injection, schedule: Q04DX003 (ip), vehicle: gum acacia 100 % of control

O=[N+]([O-])c1ccc(-c2nn[nH]n2)cc1
inactive: [1] 92 % of control | [2] 103 % of control | [3] 103 % of control | [4] 93 % of control | dose: 264.0 mg/kg/injection, schedule: Q04DX003 (ip), vehicle: acetone 96 % of control | dose: 264.0 mg/kg/injection, schedule: Q04DX003 (ip), vehicle: saline with Tween-80 106 % of control | [5] 105 % of control | dose: 400.0 mg/kg/injection, schedule: Q04DX003 (ip), vehicle: acetone 102 % of control

Cc1ccc(C)c(OCC(=O)O)c1
inactive: [8] 97 % of control | [9] 101 % of control | [10] 101 % of control

CC(=O)OC1COC(NC(=O)NCCCl)C(OC(C)=O)C1OC(C)=O (stereo not drawn)
inactive: [8] 109 % of control | [9] 103 % of control | [10] 103 % of control

CCOC(=O)c1ccc(Cl)cc1
inactive: dose: 100.0 mg/kg/injection, schedule: Q01DX009 (ip), vehicle: saline with Tween-80 88 % of control | [8] 97 % of control | [9] 102 % of control | [10] 102 % of control

CNC(=O)Oc1ccc(/C=N/NC(=O)c2ccncc2)cc1OC
inactive: dose: 100.0 mg/kg/injection, schedule: Q01DX009 (ip), vehicle: Klucel (hydroxypropylcellulose) (HPC) 97 % of control | dose: 200.0 mg/kg/injection, schedule: Q01DX009 (ip), vehicle: Klucel (hydroxypropylcellulose) (HPC) 97 % of control

CC(=O)CCC(=O)O
inactive: dose: 1.56 mg/kg/injection, schedule: Q01DX Z (ip), vehicle: other 98 % of control | dose: 3.13 mg/kg/injection, schedule: Q01DX Z (ip), vehicle: other 96 % of control | dose: 6.25 mg/kg/injection, schedule: Q01DX Z (ip), vehicle: other 96 % of control | dose: 12.5 mg/kg/injection, schedule: Q01DX Z (ip), vehicle: other 95 % of control | dose: 25.0 mg/kg/injection, schedule: Q01DX Z (ip), vehicle: other 95 % of control | dose: 50.0 mg/kg/injection, schedule: Q01DX Z (ip), vehicle: other 98 % of control | dose: 100.0 mg/kg/injection, schedule: Q01DX Z (ip), vehicle: other 113 % of control | dose: 100.0 mg/kg/injection, schedule: Q04DX002 (ip), vehicle: saline 88 % of control | dose: 200.0 mg/kg/injection, schedule: Q01DX Z (ip), vehicle: other 96 % of control | dose: 200.0 mg/kg/injection, schedule: Q04DX002 (ip), vehicle: saline 100 % of control | dose: 400.0 mg/kg/injection, schedule: Q04DX002 (ip), vehicle: saline 118 % of control

CC(=O)NC1=C(c2ccccc2)C(=O)c2ccccc21
inactive: dose: 45.0 mg/kg/injection, schedule: Q01DX001 (ip), vehicle: Klucel (hydroxypropylcellulose) (HPC) 107 % of control | dose: 65.0 mg/kg/injection, schedule: Q01DX001 (ip), vehicle: Klucel (hydroxypropylcellulose) (HPC) 96 % of control | dose: 100.0 mg/kg/injection, schedule: Q01DX001 (ip), vehicle: Klucel (hydroxypropylcellulose) (HPC) 100 % of control and 104 % of control | [8] 107 % of control | dose: 150.0 mg/kg/injection, schedule: Q01DX001 (ip), vehicle: Klucel (hydroxypropylcellulose) (HPC) 96 % of control | dose: 200.0 mg/kg/injection, schedule: Q01DX001 (ip), vehicle: Klucel (hydroxypropylcellulose) (HPC) 96 % of control and 117 % of control and 91 % of control | [9] 107 % of control | dose: 300.0 mg/kg/injection, schedule: Q01DX001 (ip), vehicle: Klucel (hydroxypropylcellulose) (HPC) 104 % of control | dose: 400.0 mg/kg/injection, schedule: Q01DX001 (ip), vehicle: Klucel (hydroxypropylcellulose) (HPC) 97 % of control and 102 % of control and 103 % of control | [10] 97 % of control

CCCCCCCCCCCCCCCCCC(CCCCCCCCCCCCCCCCC)=NNC(N)=S
inactive: dose: 100.0 mg/kg/injection, schedule: Q01DX009 (ip), vehicle: other 92 % of control | dose: 200.0 mg/kg/injection, schedule: Q01DX009 (ip), vehicle: other 89 % of control | dose: 400.0 mg/kg/injection, schedule: Q01DX009 (ip), vehicle: other 97 % of control
